# From PMC5666424, “Marine-Derived 2-Aminoimidazolone Alkaloids. Leucettamine B-Related Polyandrocarpamines Inhibit Mammalian and Protozoan DYRK & CLK Kinases” (Marine Drugs, 2017)
# Read-outs that look alike come from different tables or passages of the source.
# Columns and labels:
# Test in all cases: Protein kinase assay
# CLK2 = CLK2 (Mus musculus, UniProt O35491)
# CDK1/cyclin B = assay type: biochemical, starfish; conditions: 15 μmol/L ATP
# DYRK3 = target: T1, DYRK3 (Homo sapiens, UniProt O43781); assay type: biochemical; conditions: 15 μmol/L ATP; read-out: IC50 DYRK3
# T1 sequence (O43781 1-588): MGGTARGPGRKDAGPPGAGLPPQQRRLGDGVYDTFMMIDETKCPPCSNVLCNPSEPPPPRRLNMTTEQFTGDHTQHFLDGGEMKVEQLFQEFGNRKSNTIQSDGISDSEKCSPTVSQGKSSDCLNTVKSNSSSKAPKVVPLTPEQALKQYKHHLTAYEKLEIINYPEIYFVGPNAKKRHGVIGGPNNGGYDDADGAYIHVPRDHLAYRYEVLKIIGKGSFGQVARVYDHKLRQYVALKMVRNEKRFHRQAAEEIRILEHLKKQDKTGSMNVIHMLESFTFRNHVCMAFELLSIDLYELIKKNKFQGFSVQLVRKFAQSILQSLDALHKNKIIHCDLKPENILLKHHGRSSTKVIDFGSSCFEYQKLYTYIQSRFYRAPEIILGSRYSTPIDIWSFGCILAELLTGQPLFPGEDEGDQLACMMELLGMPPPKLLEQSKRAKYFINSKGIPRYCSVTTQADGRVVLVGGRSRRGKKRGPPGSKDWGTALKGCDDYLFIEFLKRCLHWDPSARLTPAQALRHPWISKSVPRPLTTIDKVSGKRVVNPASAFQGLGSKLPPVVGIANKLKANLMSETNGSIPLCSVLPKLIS
# CLK4 = CLK4 (Mus musculus, UniProt O35493)
# CLK4, sequence (O35493 whole entry): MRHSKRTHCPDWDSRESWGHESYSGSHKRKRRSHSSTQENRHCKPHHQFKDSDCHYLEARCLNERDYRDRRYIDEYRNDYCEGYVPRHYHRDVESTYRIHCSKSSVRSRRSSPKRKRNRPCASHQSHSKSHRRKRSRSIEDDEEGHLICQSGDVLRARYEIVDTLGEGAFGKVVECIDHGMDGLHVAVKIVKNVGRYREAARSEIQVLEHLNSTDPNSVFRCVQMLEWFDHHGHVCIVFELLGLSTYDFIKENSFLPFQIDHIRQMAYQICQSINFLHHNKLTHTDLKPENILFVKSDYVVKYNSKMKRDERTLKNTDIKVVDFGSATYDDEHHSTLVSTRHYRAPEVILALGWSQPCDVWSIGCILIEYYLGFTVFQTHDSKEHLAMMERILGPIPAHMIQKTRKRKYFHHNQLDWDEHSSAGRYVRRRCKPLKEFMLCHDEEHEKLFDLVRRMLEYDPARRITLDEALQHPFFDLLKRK
# CLK3 = CLK3 (Mus musculus, UniProt O35492)
# CLK3, sequence (O35492 whole entry): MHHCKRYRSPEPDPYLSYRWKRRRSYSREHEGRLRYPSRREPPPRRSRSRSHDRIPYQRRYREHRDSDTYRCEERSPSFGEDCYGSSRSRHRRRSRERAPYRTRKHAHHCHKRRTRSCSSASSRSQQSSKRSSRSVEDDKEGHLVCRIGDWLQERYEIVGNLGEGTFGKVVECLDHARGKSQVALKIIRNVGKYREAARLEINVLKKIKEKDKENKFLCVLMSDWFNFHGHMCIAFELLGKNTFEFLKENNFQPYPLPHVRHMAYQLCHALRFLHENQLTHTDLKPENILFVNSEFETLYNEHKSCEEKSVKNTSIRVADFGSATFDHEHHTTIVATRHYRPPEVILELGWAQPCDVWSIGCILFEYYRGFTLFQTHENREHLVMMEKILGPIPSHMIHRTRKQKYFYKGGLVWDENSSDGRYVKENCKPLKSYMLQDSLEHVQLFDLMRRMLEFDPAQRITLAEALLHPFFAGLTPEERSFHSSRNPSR
# CLK1 = CLK1 (Mus musculus, UniProt P22518)
# CLK1, sequence (P22518 whole entry): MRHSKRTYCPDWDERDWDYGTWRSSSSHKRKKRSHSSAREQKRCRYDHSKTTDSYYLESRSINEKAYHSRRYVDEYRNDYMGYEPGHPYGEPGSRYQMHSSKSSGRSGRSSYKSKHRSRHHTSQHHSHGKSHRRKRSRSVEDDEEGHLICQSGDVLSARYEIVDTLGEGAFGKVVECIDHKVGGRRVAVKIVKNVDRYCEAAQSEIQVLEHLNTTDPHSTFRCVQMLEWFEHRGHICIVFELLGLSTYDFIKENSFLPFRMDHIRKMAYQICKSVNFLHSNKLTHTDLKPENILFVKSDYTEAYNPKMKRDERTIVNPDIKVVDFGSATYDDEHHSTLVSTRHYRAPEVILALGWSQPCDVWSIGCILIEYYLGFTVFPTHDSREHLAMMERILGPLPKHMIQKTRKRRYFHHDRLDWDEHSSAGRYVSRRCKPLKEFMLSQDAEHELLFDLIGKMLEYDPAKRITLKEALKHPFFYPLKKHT
# GSK-3α/β = assay type: biochemical, porcine; conditions: 15 μmol/L ATP
# DYRK2 = target: T2, DYRK2 (Homo sapiens, UniProt Q92630); assay type: biochemical; conditions: 15 μmol/L ATP; read-out: IC50 DYRK2
# T2 sequence (Q92630 1-601): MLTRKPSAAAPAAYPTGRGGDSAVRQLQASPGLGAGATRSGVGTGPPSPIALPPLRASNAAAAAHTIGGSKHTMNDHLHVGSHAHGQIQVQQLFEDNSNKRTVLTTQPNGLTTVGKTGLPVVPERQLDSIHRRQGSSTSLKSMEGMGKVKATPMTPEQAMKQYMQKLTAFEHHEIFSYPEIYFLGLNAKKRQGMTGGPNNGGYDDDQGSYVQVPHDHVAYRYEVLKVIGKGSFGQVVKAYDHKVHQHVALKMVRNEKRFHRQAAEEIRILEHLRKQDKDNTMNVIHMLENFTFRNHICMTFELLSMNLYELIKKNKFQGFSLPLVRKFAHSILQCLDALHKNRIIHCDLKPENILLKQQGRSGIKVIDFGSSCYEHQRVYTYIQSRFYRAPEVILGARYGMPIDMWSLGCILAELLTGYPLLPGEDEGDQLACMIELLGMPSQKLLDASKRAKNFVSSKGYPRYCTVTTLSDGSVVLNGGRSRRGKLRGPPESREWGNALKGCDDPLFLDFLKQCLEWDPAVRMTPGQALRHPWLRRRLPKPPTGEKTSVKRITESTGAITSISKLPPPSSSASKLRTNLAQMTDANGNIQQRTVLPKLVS
# CK1δ/ε = assay type: biochemical, porcine; conditions: 15 μmol/L ATP
# Protocol: (§1) CK1δ/ε (porcine brain, native) and LmCK1 (leishmania major, recombinant, expressed in E. coli as HIS fusion proteins) was assayed as described for CDK1 but in buffer C and using 25 μM CKS peptide ([…]pSAYSITA), a CK1-specific substrate.
# DYRK1A = DYRK1A (Homo sapiens, UniProt Q13627); assay type: biochemical; conditions: 15 μmol/L ATP
# CDK9/cyclin T = CDK9/cyclin T (Homo sapiens, UniProt P50750); conditions: 15 μmol/L ATP
# CDK9/cyclin T, sequence (P50750 whole entry): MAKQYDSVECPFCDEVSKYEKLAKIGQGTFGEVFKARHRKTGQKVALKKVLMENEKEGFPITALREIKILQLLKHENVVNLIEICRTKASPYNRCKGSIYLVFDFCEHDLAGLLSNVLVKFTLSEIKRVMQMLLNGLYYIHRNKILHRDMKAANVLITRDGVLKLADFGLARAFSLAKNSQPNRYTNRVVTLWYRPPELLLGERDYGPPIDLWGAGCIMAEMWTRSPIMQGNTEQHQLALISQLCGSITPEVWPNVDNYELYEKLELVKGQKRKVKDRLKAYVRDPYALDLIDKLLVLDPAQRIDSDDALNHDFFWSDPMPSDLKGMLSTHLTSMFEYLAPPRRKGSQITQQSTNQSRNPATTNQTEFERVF
# CDK9/cyclin T, sequence (O60563 whole entry partner): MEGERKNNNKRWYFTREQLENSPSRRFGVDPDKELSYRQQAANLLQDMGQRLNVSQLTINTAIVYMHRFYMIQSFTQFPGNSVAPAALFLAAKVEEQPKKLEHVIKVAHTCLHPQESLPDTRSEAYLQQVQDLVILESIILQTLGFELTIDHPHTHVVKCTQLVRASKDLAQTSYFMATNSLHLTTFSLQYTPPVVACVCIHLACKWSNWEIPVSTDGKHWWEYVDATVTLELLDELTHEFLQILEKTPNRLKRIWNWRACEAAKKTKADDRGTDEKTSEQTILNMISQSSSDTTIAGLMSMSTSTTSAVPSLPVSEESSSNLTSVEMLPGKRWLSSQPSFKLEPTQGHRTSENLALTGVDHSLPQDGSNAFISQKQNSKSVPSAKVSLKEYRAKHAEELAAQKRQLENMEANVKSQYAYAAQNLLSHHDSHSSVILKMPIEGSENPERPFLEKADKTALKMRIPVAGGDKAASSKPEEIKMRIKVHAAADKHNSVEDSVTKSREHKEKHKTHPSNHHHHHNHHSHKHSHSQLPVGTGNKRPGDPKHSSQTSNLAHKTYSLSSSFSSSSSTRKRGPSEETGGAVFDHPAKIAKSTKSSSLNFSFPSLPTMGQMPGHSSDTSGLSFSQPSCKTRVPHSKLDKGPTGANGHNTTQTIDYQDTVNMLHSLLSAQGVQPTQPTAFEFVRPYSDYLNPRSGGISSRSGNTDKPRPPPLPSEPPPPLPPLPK
# DYRK1B = DYRK1B (Homo sapiens, UniProt Q9Y463); assay type: biochemical; conditions: 15 μmol/L ATP
# DYRK1B, sequence (Q9Y463 whole entry): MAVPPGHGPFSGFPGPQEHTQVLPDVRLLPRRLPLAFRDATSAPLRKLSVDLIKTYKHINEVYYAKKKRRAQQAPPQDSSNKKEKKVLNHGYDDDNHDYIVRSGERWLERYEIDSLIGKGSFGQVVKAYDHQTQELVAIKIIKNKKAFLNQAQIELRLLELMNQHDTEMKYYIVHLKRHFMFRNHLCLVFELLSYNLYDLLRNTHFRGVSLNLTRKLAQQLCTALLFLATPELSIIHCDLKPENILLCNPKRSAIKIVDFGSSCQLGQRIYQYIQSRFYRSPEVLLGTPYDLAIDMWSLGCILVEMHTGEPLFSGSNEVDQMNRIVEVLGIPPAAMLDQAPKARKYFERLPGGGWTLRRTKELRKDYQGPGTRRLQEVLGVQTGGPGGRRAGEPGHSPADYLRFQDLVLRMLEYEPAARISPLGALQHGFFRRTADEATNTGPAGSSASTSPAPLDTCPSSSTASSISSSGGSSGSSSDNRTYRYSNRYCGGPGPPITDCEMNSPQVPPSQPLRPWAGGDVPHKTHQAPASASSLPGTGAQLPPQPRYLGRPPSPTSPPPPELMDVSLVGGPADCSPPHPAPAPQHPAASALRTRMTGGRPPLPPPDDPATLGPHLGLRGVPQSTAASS
# CDK5/p25 = target: T3, CDK5/p25 (Homo sapiens, UniProt Q00535); assay type: biochemical; conditions: 15 μmol/L ATP; read-out: IC50 CDK5/p25
# T3 construct: made in house
# T3 sequence (Q00535 whole entry): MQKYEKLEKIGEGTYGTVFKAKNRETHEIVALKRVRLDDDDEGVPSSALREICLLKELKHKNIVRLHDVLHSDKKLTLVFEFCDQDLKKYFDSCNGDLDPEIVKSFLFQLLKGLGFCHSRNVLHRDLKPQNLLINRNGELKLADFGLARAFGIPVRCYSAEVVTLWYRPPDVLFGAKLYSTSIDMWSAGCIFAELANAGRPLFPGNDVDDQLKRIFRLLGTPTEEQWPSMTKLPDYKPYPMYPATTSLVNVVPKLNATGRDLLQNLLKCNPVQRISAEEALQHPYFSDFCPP
# T3 sequence (Q15078 99-307 partner limits assumed): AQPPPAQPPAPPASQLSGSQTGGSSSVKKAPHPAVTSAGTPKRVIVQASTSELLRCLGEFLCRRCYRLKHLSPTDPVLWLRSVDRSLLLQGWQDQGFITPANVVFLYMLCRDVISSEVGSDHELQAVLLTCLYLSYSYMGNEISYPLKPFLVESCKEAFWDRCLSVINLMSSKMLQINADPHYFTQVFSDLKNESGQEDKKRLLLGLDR
# LmCK1 = LmCK1 (Leishmania major, UniProt Q9NHE1); assay type: biochemical; conditions: 15 μmol/L ATP; read-out: IC50 LmCK1
# LmCK1, sequence (Q9NHE1 entry or part of it): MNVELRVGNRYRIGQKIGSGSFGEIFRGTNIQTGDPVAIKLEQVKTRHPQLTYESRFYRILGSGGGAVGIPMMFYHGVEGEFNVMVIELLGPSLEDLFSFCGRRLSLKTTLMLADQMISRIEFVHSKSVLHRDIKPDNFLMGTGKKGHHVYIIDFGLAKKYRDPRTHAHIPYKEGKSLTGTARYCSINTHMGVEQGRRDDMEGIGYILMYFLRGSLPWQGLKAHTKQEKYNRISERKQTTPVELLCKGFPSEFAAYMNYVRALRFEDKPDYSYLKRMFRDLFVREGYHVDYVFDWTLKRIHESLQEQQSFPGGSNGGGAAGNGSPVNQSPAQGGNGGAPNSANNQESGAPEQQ
# Protocol: as §1
# CDK2/cyclin A = target: T4, CDK2/cyclin A (Homo sapiens, UniProt P24941); assay type: biochemical; conditions: 15 μmol/L ATP; read-out: IC50 CDK2/cyclin A
# T4 construct: made in house
# PfGSK-3 = target: T5, PfGSK-3 (Plasmodium falciparum, UniProt O77344); assay type: biochemical; conditions: 15 μmol/L ATP; read-out: IC50 PfGSK-3
# T5 sequence (O77344 1-440): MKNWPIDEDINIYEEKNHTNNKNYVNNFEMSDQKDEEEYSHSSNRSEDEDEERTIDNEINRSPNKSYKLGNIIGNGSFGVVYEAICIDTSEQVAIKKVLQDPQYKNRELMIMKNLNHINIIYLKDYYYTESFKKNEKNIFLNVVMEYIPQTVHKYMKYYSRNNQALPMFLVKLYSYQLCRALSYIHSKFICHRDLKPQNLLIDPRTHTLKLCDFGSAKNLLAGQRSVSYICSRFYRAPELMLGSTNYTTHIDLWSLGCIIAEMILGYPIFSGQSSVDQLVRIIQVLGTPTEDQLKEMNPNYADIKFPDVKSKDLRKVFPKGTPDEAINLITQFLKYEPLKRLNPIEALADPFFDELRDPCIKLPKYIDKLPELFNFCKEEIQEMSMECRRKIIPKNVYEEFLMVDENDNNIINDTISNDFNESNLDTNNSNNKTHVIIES
# Protocol: The parasitic kinase genes (Supplementary Data, Table S3) were optimized for expression in E. coli, synthesized, and cloned in pGEX-6P-1 (GE Healthcare, Sigma-Aldrich, St. Quentin Fallavier, France) with the type II restriction enzymes BamHI and XhoI for glutathione S-transferase (GST) fusion at the N-terminus (GenScript). Plasmids were transformed into chemically competent E. coli BL21(DE3), which were grown overnight at 37 °C in 2 × YT medium containing 100 μg/mL ampicillin. These cultures were used to inoculate 1 L volumes of 2 × YT medium (containing 100 μg/mL ampicillin) in 5 L flasks. The cultures were allowed to grow at 37 °C before the temperature was decreased to 18 °C. At an optical density at 600 nm (OD600) of about 1.0, protein expression was induced overnight at 18 °C with 0.1 mM isopropyl β-D-1-thiogalactopyranoside (IPTG). The bacteria were harvested by centrifugation and were frozen at −20 °C.
# Cells were resuspended in a lysis buffer (PBS pH 7.4, 1% NP40, 1 mM DTT, 1 mM EDTA, 1 mM PMSF) in the presence of protease inhibitor cocktail (Roche), and lysozyme was added to 1 mg/mL and incubated 1 h at 4 °C with gentle agitation. Cells were then sonicated on ice before 6 mM MgCl2 and 25 U/mL benzonase (Novagen, Merck Millipore, Fontenay sous Bois, France) were added to degrade nucleic acids and decrease sample viscosity. After centrifugation at 4 °C, the soluble fraction was collected and proteins were bound to Glutathione sepharose 4B beads (GE Healthcare). Beads were washed three times with lysis buffer and once with modified buffer C (25 mM MOPS pH 7.0, 60 mM β-glycerophosphate, 15 mM p-nitrophenylphosphate, 15 mM EGTA, 15 mM MgCl2, 2 mM DTT, 1 mM sodium vanadate). Proteins were eluted with elution buffer (buffer C containing 30 mM reduced glutathione, 15% glycerol, and pH adjusted to 8.5).
# [1] = read-out: IC50 CLK2, 15 μmol/L ATP
# [2] = read-out: IC50 CLK4, 15 μmol/L ATP
# [3] = read-out: IC50 CLK3, 15 μmol/L ATP
# [4] = read-out: IC50 CLK1, 15 μmol/L ATP
# CLK2, sequence (O35491 whole entry): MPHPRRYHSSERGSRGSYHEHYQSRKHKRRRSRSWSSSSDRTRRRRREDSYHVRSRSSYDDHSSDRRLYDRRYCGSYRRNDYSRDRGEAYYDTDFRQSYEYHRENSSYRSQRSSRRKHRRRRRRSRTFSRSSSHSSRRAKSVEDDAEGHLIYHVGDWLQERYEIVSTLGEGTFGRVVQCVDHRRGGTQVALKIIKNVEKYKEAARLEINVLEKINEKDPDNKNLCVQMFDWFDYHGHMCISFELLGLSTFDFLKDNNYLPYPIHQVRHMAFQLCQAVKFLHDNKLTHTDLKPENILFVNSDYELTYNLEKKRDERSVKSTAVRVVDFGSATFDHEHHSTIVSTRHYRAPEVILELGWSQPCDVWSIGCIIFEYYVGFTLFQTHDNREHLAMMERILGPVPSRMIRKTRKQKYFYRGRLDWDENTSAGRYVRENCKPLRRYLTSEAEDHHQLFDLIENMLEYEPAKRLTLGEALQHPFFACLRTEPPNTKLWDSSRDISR
IC50 (CDK1/cyclin B) [µM],IC50 (DYRK3) [nM],IC50 (GSK-3α/β) [µM],IC50 (DYRK2) [nM],IC50 (DYRK1A) [nM],IC50 (DYRK1B) [µM],IC50 (CDK5/p25) [µM],IC50 (CLK2; [1]) [µM],IC50 (LmCK1) [µM],IC50 (CDK2/cyclin A) [µM],IC50 (CLK4; [2]) [nM],IC50 (CLK3; [3]) [µM],IC50 (CLK1; [4]) [nM],IC50 (CK1δ/ε) [µM],IC50 (PfGSK-3) [µM],IC50 (CDK9/cyclin T; read-out: IC50 CDK9/cyclin T) [nM],Compound,"IC50 (CLK2; IC50 CLK2, 15 μmol/L ATP) [µM]","IC50 (CLK4; IC50 CLK4, 15 μmol/L ATP) [nM]","IC50 (CLK3; IC50 CLK3, 15 μmol/L ATP) [µM]",IC50 (CDK9/cyclin T; IC50 CDK9/cyclin T) [nM],also measured
,900,,480,750,1.1,,,,,,,,,,,"NC1=N/C(=C\c2ccc(O)c(O)c2)C(=O)N1 [PAC2, polyandrocarpamine B]",2.5,950,9.2,2000,
> 10,> 10000,> 10,2200,2100,8.2,> 10,6.3,> 10,≥ 10,2300,> 10,2200,≥ 10,> 10,> 10000,NC1=NC(=Cc2cccc(Br)c2)C(=O)N1 [PAC3],,,,,
> 10,5100,> 10,4500,4000,> 10,> 10,> 10,> 10,≥ 10,≥ 10000,> 10,≥ 10000,≥ 10,> 10,> 10000,COc1ccc(C=C2N=C(N)NC2=O)cc1F [PAC4],,,,,
> 10,5700,> 10,640,1300,6.1,> 10,7.5,> 10,> 10,2400,> 10,2200,> 10,> 10,≥ 10000,COc1cc(C=C2N=C(N)NC2=O)ccc1F [PAC5],,,,,
> 10,> 10000,> 10,> 10000,> 10000,> 10,> 10,> 10,> 10,> 10,> 10000,> 10,> 10000,> 10,> 10,> 10000,CN(C)CCOc1ccc(C=C2N=C(N)NC2=O)cc1 [PAC6],,,,,
> 10,> 10000,> 10,> 10000,> 10000,> 10,> 10,> 10,> 10,> 10,> 10000,> 10,> 10000,> 10,> 10,> 10000,NC1=NC(=Cc2ccccc2N2CCOCC2)C(=O)N1 [PAC7],,,,,
> 10,> 10000,> 10,> 10000,> 10000,> 10,> 10,> 10,> 10,> 10,> 10000,> 10,> 10000,> 10,> 10,510,NC1=NC(=Cc2ccc(-n3ccnc3)cc2)C(=O)N1 [PAC8],,,,,
,680,,380,590,0.96,,,,,,,,,,,"NC1=N/C(=C\c2ccc(O)c(O)c2)C(=O)N1 [PAC13, polyandrocarpamine B]",2.42,910,10,1800,

Compound,IC50 (CDK1/cyclin B) [µM],IC50 (DYRK3) [nM],IC50 (GSK-3α/β) [µM],IC50 (DYRK2) [nM],IC50 (DYRK1A) [nM],IC50 (DYRK1B) [µM],IC50 (CDK5/p25) [µM],IC50 (CLK2; [1]) [µM],IC50 (LmCK1) [µM],IC50 (CDK2/cyclin A) [µM],IC50 (CLK4; [2]) [nM],IC50 (CLK3; [3]) [µM],IC50 (CLK1; [4]) [nM],IC50 (CK1δ/ε) [µM],IC50 (PfGSK-3) [µM],IC50 (CDK9/cyclin T; read-out: IC50 CDK9/cyclin T) [nM],"IC50 (CLK2; IC50 CLK2, 15 μmol/L ATP) [µM]","IC50 (CLK4; IC50 CLK4, 15 μmol/L ATP) [nM]","IC50 (CLK3; IC50 CLK3, 15 μmol/L ATP) [µM]",IC50 (CDK9/cyclin T; IC50 CDK9/cyclin T) [nM],also measured
"COc1cc(/C=C2\N=C(N)NC2=O)ccc1O [PAC1, polyandrocarpamine A]",> 10,280,> 10,140,230,0.4,,,,,,,,,,,1.2,400,2.3,1100,"IC50 (CLK1; IC50 CLK1, 15 μmol/L ATP): 430 nM; IC50 (CK1δ/ε; listed as 1): 5.2 µM"
"COc1cc(/C=C2\N=C(N)NC2=O)ccc1O [PAC12, polyandrocarpamine A]",,340,,240,300,0.47,,,,,,,,,,,0.64,470,2.7,900,"IC50 (CLK1; IC50 CLK1, 15 μmol/L ATP): 470 nM; IC50 (CK1δ/ε; listed as 12): 5 µM"
